{
  "source": "patent US6627664B2",
  "about": "“Perylenequinones for use as sonosensitizers” (Altachem Pharma Ltd., priority 2001, dated 2003)",
  "key": {"[1]": {"system": "cells", "conditions": "for Photopotentiation Factor: LD50 dark divided by LD50 light; for LD50 Light: light dose not fixed, 0.75-1.0 J/cm2 of 630 nm light; for cell killing with light: wavelengths between at least 630 and 688 nm", "excerpt": "As used herein, “photopotentiation factor” refers to the property of the compound(s) to exert light- or sound-mediated toxicity in excess of its (their) inherent unactivated toxicity. […] Where the term “LD50” has been used above, the term “IC50” may be substituted, to address the bioassays that concern metabolic activity rather than the endpoint of lethality, loss of reproductive capability, or clonogenic death. The relative photoactivation efficiency of a compound may also be determined using a clonogenic assay, an assay that is well known to those skilled in the art.\nIn accordance with the present invention, a desirable PQP derivative is one that is non-toxic (or of low toxicity) at high drug concentrations without activation, i.e., without light (also referred to as “dark”), and/or without sound, and is toxic at low concentrations when light of the appropriate wavelength, or sound of the appropriate frequency, is applied. As is recognized by those skilled in the art, the most desirable compounds are those that provide a wide range of non-toxic doses in an unactivated state, as this characteristic provides an increased safety factor for the patient."}, "[2]": {"system": "HL-60 cells", "experiment": "Sonodynamic toxicity (insonation, surviving fraction)", "type": "cell-based, human", "conditions": "for maximum sonotoxic effect: 100 μM to 1000 μM, versus 1000 μM Hp control; for sonotoxicity: up to 100 μM", "protocol": "Sonodynamic toxicity of two perylenequinone derivatives in human promyelocytic leukemia cells in vitro, with respect to a positive control, hematoporphyrin at 1 mM.\nHL-60 cells were treated with perylenequinone sensitizers and insonated as described above. The surviving fractions were plotted against sensitizer concentration. […] Cell survival decreased steeply over the next two decades of sensitizer concentration."}, "[3]": {"experiment": "Singlet oxygen (1O2) yield", "type": "physicochemical"}, "[4]": {"conditions": "same concentration as Hp; cited from earlier work"}, "[5]": {"conditions": "insonated solutions, TMPone; cited from earlier work"}, "[6]": {"system": "sarcoma 180 cells", "conditions": "cited from earlier work; for rate of ultrasound-induced cell damage: 80 μM, insonated, versus ultrasound alone"}, "[7]": {"system": "sarcoma 180 cells", "conditions": "56 mg/kg administered before insonation; cited from earlier work"}, "[8]": {"system": "uterine cervical squamous cell carcinomas", "conditions": "with ultrasound; cited from earlier work"}, "[9]": {"system": "cell lines", "conditions": "tone-burst and pulsed ultrasound; cited from earlier work"}, "[10]": {"system": "EMT6/Ed cells", "experiment": "Cellular uptake by 14C-labeling and confocal laser scanning microscopy", "conditions": "CLSM"}, "[11]": {"system": "cell suspension", "experiment": "Oxygen dependency of phototoxicity", "type": "cell-based", "conditions": "total absence of oxygen", "excerpt": "Phototoxicity diminishes as the pO2 in the gas phase of the cell suspension is reduced for PDT treatment, from ambient to 0.0%. The oxygen enhancement ratio (O.E.R.) Is 4.0 at the D0."}, "[12]": {"system": "EMT6/Ed tumors", "experiment": "EMT6/Ed tumor control after 630 nm light applied transcutaneously", "type": "in vivo, Balb/c mice", "conditions": "50 μmol/kg body weight", "protocol": "Both the concentration of drug and the dosage of light are important for treatment of tumors.\nEMT6/Ed tumor control in Balb/c mice following various doses of 630 nm light applied transcutaneously. HBEA-R1 was administered at a fixed dose. True control represents animals given neither photosensitizer nor laser light. The animals were treated approximately 7 days following tumor implantation, and euthanized when tumors reached four times treatment volume."}, "[13]": {"system": "EMT6/Ed cells", "experiment": "Propidium iodide determination of apoptotic nuclei", "type": "cell-based", "excerpt": "The background frequency of cells with apoptotic morphology is represented by the untreated control."}, "[14]": {"experiment": "Light absorption properties (red spectral region, 630 nm)", "type": "physicochemical", "conditions": "for A630: absorbance at 630 nm"}, "[15]": {"system": "EMT6/Ed cells"}},
  "note": "Where two headings read alike, the source gives them in different places. Marks after values point to notes of the source that are not given here.",
  "data": [
    {"compound": "5,8-dibromo-HB [DBHB]", "values": [
      {"measurement": "LD50 Dark", "setting": "[1]", "value": 10, "unit": "µM"},
      {"measurement": "Photopotentiation Factor", "setting": "[1]", "value": 3.3},
      {"measurement": "LD50 Light", "setting": "[1]", "value": 3, "unit": "µM"},
      {"measurement": "maximum sonotoxic effect", "setting": "[2]", "value": "comparable to that of the Hp control"},
      {"measurement": "sonotoxicity", "setting": "[2]", "value": "negligible sonotoxicity"},
      {"measurement": "^1O2 Yield", "setting": "[3]", "value": 0.62}
    ]},
    {"compound": "CCCCCCCCCCOC(C)C1=C(C)c2cc3[n-]c(cc4[n-]c(cc5nc(cc1n2)C(C)=C5C(C)OCCCCCCCCCC)c(C)c4CCC(=O)NC(CC(=O)[O-])C(=O)[O-])c(CCC(=O)NC(CC(=O)[O-])C(=O)[O-])c3C.[Ga+3].[H+].[H+].[H+]", "note": "(stereo not drawn) [ATX-70, 2,4-bis(1-decyloxyethyl)-Ga(lll)-1,3,5,8-tetramethylporphryin-6,7-dipropionyl diaspartic acid]", "values": [
      {"measurement": "ultrasound induced bleaching relative to Hp", "setting": "[4]", "value": "three times as great"},
      {"measurement": "levels of nitroxide relative to solutions containing Hp", "setting": "[5]", "value": 2.5, "unit": "times"},
      {"measurement": "rate of ultrasound-induced cell damage", "setting": "[6]", "value": "in excess of four times"}
    ]},
    {"compound": "COc1cccc2c1C(=O)c1c(O)c3c(c(O)c1C2=O)CC(O)(C(=O)COC(=O)CCCCCC(=O)O)CC3OC1OC(C)C(O)C(O)C1F", "note": "(stereo not drawn) [FAD 104, 3′-deamino-2′-fluoro-3′-hydroxydoxorubicin-14-pimelate]", "values": [
      {"measurement": "rate of ultrasound-induced cell damage", "setting": "[6]", "value": "doubled"},
      {"measurement": "cell damage with compound alone", "setting": "[6]; no ultrasound", "value": "no cell damage"}
    ]},
    {"compound": "C=Cc1c(C)c2cc3nc(c4c5[nH]c(cc6nc(cc1[nH]2)C(C)=C6CC)c(C)c5C(=O)[C@@H]4C(=O)OC)[C@@H](CCC(=O)O)[C@@H]3C", "note": "[Ph-A, Pheophorbide A]", "values": [
      {"measurement": "tumor growth", "setting": "[7]", "value": "completely inhibited tumor growth"},
      {"measurement": "rate of ultrasound-induced cell damage", "setting": "[6]", "value": "double"}
    ]},
    {"compound": "CCOC(=O)NC1=C(N2CC2)C(=O)C(NC(=O)OCC)=C(N2CC2)C1=O", "note": "[diaziquone]", "values": [
      {"measurement": "antitumour effect measured by volume reduction", "setting": "[8]", "value": "significant antitumour effect"},
      {"measurement": "effect in combination with ultrasound on cytotoxicity", "setting": "[9]", "value": "synergistic effects"}
    ]},
    {"compound": "COc1cccc2c1C(=O)c1c(O)c3c(c(O)c1C2=O)C[C@@](O)(C(=O)CO)C[C@@H]3O[C@H]1C[C@H](N)[C@H](O)[C@H](C)O1", "note": "[doxorubicin]", "values": [
      {"measurement": "antitumour effect measured by volume reduction", "setting": "[8]", "value": "significant antitumour effect"}
    ]},
    {"compound": "Ethanolamine-HB [HBEA-R1]", "values": [
      {"measurement": "Photopotentiation Factor", "setting": "[1]", "value": "100-167"},
      {"measurement": "LD50 Light", "setting": "[1]", "value": 0.15, "unit": "µM"},
      {"measurement": "cell killing with light", "setting": "[1]", "value": "capable of killing cells"},
      {"measurement": "LD50 Dark", "setting": "[1]; without light", "value": "15 to 25", "unit": "µM"},
      {"measurement": "time until uptake is complete", "setting": "[10]", "value": "≤ 2", "unit": "h"},
      {"measurement": "phototoxicity without oxygen", "setting": "[11]", "value": "Evidence of type 1—mediated phototoxicity"},
      {"measurement": "cure rate", "setting": "[12]; 50 Joules of 630 nm light", "value": 40, "unit": "%"},
      {"measurement": "tumor cure", "setting": "[12]; 100 Joules of 630 nm light", "value": "approximately 90%"},
      {"measurement": "cure rates", "setting": "[12]; lower light dosages", "value": "significantly lower"},
      {"measurement": "apoptotic morphology", "setting": "[13]; PDT, within 48 hours of treatment", "value": 50, "unit": "%"},
      {"measurement": "induction of apoptosis by sensitizer alone", "setting": "[13]; photosensitizing concentrations, no light", "value": "do not induce apoptosis"},
      {"measurement": "^1O2 Yield", "setting": "[3]", "value": 0.60}
    ]},
    {"compound": "Hypocrellin B [HB, reference compound]", "values": [
      {"measurement": "Photopotentiation Factor", "setting": "[1]", "value": "10-13"},
      {"measurement": "LD50 Light", "setting": "[1]", "value": "1.5 to 2", "unit": "µM"},
      {"measurement": "LD50 Dark", "setting": "[1]; without light", "value": 20, "unit": "µM"},
      {"measurement": "Abs. Peak in red Spectral region", "setting": "[14]", "value": "658* nm"},
      {"measurement": "Extinction Coefficient (× 10^−3) (630 nm)", "setting": "[14]", "value": "1.00 × 10^−3"},
      {"measurement": "A630", "setting": "[14]", "value": 0.100},
      {"measurement": "Amax/solvent", "setting": "[14]; solvent DMF", "value": "0.118/DMF"},
      {"measurement": "cytotoxicity under uptake conditions", "setting": "[15]", "value": "not cytotoxic"},
      {"measurement": "time until cellular uptake reached equilibrium", "setting": "[15]", "value": "≤ 15", "unit": "min"},
      {"measurement": "^1O2 Yield", "setting": "[3]", "value": 0.74}
    ]},
    {"compound": "demethylated HB [DMHB]", "values": [
      {"measurement": "LD50 Dark", "setting": "[1]", "value": ">25", "unit": "µM"},
      {"measurement": "Photopotentiation Factor", "setting": "[1]", "value": ">5-8.3"},
      {"measurement": "LD50 Light", "setting": "[1]", "value": "3 to 5", "unit": "µM"},
      {"measurement": "Abs. Peak in red Spectral region", "setting": "[14]", "value": "648* nm"},
      {"measurement": "Extinction Coefficient (× 10^−3) (630 nm)", "setting": "[14]", "value": "4.77 × 10^−3"},
      {"measurement": "A630", "setting": "[14]", "value": 0.477},
      {"measurement": "Amax/solvent", "setting": "[14]; solvent EtOH", "value": "0.469/EtOH"},
      {"measurement": "maximum sonotoxic effect", "setting": "[2]", "value": "comparable to that of the Hp control"},
      {"measurement": "sonotoxicity", "setting": "[2]", "value": "negligible sonotoxicity"},
      {"measurement": "^1O2 Yield", "setting": "[3]", "value": 0.42}
    ]},
    {"compound": "n-butylaminated HB [HBBA-R2]", "values": [
      {"measurement": "LD50 Dark", "setting": "[1]", "value": ">100", "unit": "µM"},
      {"measurement": "Photopotentiation Factor", "setting": "[1]", "value": "167-500"},
      {"measurement": "LD50 Light", "setting": "[1]", "value": "0.2 to 0.6", "unit": "µM"},
      {"measurement": "cell killing with light", "setting": "[1]", "value": "capable of killing cells"},
      {"measurement": "Abs. Peak in red Spectral region", "setting": "[14]", "value": "616* nm"},
      {"measurement": "Extinction Coefficient (× 10^−3) (630 nm)", "setting": "[14]", "value": "6.19 × 10^−3"},
      {"measurement": "A630", "setting": "[14]", "value": 0.619},
      {"measurement": "Amax/solvent", "setting": "[14]; solvent CHCl3", "value": "0.628/CHCl3"},
      {"measurement": "^1O2 Yield", "setting": "[3]", "value": 0.32}
    ]}
  ]
}
